Measurements from US20030108512A1, “Modified prostaglandin compounds and analogs thereof, compositions containing the same useful for the treatment of cancer” (priority 2001, published 2003).

Tests used:
[1] = test system: human amelanotic melanoma cell line (LOX); assay: Collagen degradation inhibition assay (fluorescent-labelled Type I collagen matrix seeded with tumor cells); assay type: cell-based; conditions: n=4, FIGS. 2-4; for IC50: LOX cells on labelled Type I collagen film; for dosage at which collagen degradation activity by LOX cells was inhibited: dosages tested about 10^−6 to 10^3 μM
Text: The assay for screening antimetastatic agents is comprised of a collagenous matrix comprising collagenous components including but not limited to Type I or Type VI collagen or denatured collagen such as gelatin to form a scaffold-matrix. The scaffold matrix is subsequently coated with blood-borne components such as fibronectin, laminin, and fibrin for inducing adherence of the tumor cells and thereafter, labeled with quench fluorescent dyes. During performance of the assay, tumor cells that are present, adhere, ingest and invade the labeled scaffold-matrix resulting in the release of highly fluorescent peptides. Generally, tumor cells include a specific cell structure typically comprised of tentacles or arms (i.e. invadopodia) which secrete specific digestive enzymes including seprase, dipeptidyl peptidase IV (DPPIV), membrane Type-1 matrix metalloproteinases, and the like, to breakdown the collagen matrix. The fluorescence becomes visible only in the presence of these specific digestive enzymes produced by the tumor cells and increases in proportion to the activity of the digestive enzymes, thus providing a qualitative/quantitative measure of the invasiveness of the tumor cells. Other labeling methods including, but not limited to the use of, biotin, color dyes, and radioactive probes may also be used. As described herein, the assay utilizes a thin coating of collagen labeled with a fluorescent dye probe to form a scaffold collagen matrix, and tumor cells. The scaffold collagen matrix simulates the extracellular environment that is attacked by tumor cells during metastasis. The tumor cells attack the matrix by secreting proteolytic enzymes that break the collagen into peptide fragments. The peptide fragments release the fluorescent dye probe, and fluorescent light is emitted. The observed light intensity of the fluorescence correlates proportionally with the collagen degradation activity of the tumor cells. The tumor cells used in the test samples were generated from a human amelanotic melanoma cell line (LOX). A solution of a Type I collagen was prepared at a concentration of about 3.56 mg/ml. The collagen solution was used to form a coating of a monolayer of Type I collagen on a 96-well microtiter plate. […] Fluorescence readings were made using a microtiter plate fluorescence reader set at 485 nm/538 nm (Ex/Em). […] The collagen degradation activity of the LOX cells was detected through the cleavage and release of fluorescent collagen peptides from the labeled collagen matrix film as described above. A positive fluorescence signal, ΔF indicates the presence of collagen degradation activity. […]

LOX cells = assay: Apoptosis assay (Vybrant Apoptosis Assay Kit #4, YO-PRO); assay type: cell-based, human; conditions: overnight, n=4, FIGS. 9-11
Protocol: An apoptosis assay marketed as Vybrant Apoptosis Assay Kit #4 from Molecular Probes, Inc., was obtained for the test.
The LOX cell cultures were incubated overnight.
The apoptosis assay was performed four times (n=4) for each test compound.

CCCCCC(O)CC[C@@H]1C2Cc3cccc(OCC(=O)O)c3CC2C[C@H]1O (stereo partly drawn) [Compound V, reference compound]
IC50 ([1]; Homo sapiens): 10 nM | dosage at which collagen degradation activity by LOX cells was inhibited [1]: about 2.5×10^−3 μM | dosages giving a marked increase in the incidence of apoptosis (LOX cells): over 100 μM

CNC(=O)[C@H](Cc1ccccc1)NC(=O)[C@H](CC(C)C)[C@H](CSc1cccs1)C(=O)NO [MMP inhibitor, BATIMASTAT®, reference compound]
IC50 [1]: 0.2 nM | dosage at which collagen degradation activity by LOX cells was inhibited [1]: over 10^−4 μM | dosages causing LOX cells to enter apoptosis (LOX cells): over 2 μM
